Measurements from patent publication EP0547508A1, “Use of xanthine derivatives for the stabilisation of the auto-regulation of cerebral blood flow” (priority 1991, dated 1993).

System: Ratten
Assay: Cerebral autoregulation in rats under adrenaline-induced acute hypertension, with or without carotid occlusion (ischaemia/reperfusion)
Type: in vivo
From the text: Es werden 36 Ratten unterteilt in drei Gruppen operiert. Die erste Gruppe dient als Kontrolle, d.h. es wird eine akute Hypertonie erzeugt, ohne daß die Carotiden abgeklemmt werden. Die zweite Gruppe wird während der Ischämie und die dritte Gruppe während der Reperfusion mit Adrenalin stimuliert. In jeder Gruppe werden jeweils 6 Tiere mit der Verbindung 1 als Dauerinfusion behandelt.
Bei einem mittleren arteriellen Druck von 170 mmHg wird in der Kontrollgruppe die cerebrale Autoregulation durchbrochen (entsprechend 3 µg/kg Adrenalin (Firma Sigma)). Die dreifache Dosis führt bei einem Blutdruck von 200 mmHg zum Tod der Tiere. Im Gegensatz dazu ist in der mit Verbindung 1 behandelten Gruppe die dreifache Konzentration und ein mittlerer Druck von 180 mmHg erforderlich um an die Grenze der Autoregulation zu kommen. Der Verschluß beider Carotiden führt bei den Tieren, die mit Verbindung 1 behandelt wurden, zu einer höheren Restdurchblutung (25 %) als bei den Kontrolltieren. Während der Reperfusion bleibt die Gehirndurchblutung in der Kontrollgruppe auf dem niedrigen Niveau von 23 %. Die Autoregulation wird bereits bei 150 mmHg durchbrochen (entsprechend 3 µg/kg/Adrenalin). […] Erst bei 180 mmHg kommt es zum Durchbruch der Autoregulation.
Alle Kontrolltiere verstarben nach einer Dosis von 10 µg/kg Adrenalin. Die letale Dosis für mit Verbindung 1 behandelte Tiere liegt bei 30 µg/kg Adrenalin. Zusammenfassend läßt sich feststellen, daß die mit Verbindung 1 behandelten Tiere - im Vergleich mit den Kontrolltieren - höhere Blutdruckspitzen und Blutdruckabsenkungen tolerieren und deren Gehirndurchblutungsautoregulation erst bei der 3-fachen Adrenalinkonzentration durchbrochen wird.

## CCCn1cnc2c1c(=O)n(CCCCC(C)=O)c(=O)n2C [Verbindung 1, 1-(5-Oxohexyl)-3-methyl-7-n-propyl-xanthin]
Acute hypertension by Adrenalin, carotids not clamped, Verbindung 1 as continuous infusion, control group 170 mmHg
  mittlerer Druck erforderlich um an die Grenze der Autoregulation zu kommen: 180 mmHg
Acute hypertension, carotids not clamped, relative to control group (3 µg/kg Adrenalin)
  Adrenalin-Konzentration erforderlich um an die Grenze der Autoregulation zu kommen: dreifache
During reperfusion, Adrenalin stimulation, control group 150 mmHg
  Durchbruch der Autoregulation: 180 mmHg
Occlusion of both carotids (ischaemia), higher than in control animals
  Restdurchblutung: 25%
Reperfusion after carotid occlusion, control group stays at 23 %
  Gehirndurchblutung während der Reperfusion: erreichen sofort wieder das präischämische Ausgangsniveau
summary, fold compared with control animals
  Adrenalinkonzentration bei der die Gehirndurchblutungsautoregulation durchbrochen wird: 3
